# Data reported in patent US8673880B2, “Prevention and/or treatment of neurodegenerative disorders” (The University Of Liverpool, priority 2006, dated 2014).
# Columns and labels:
# Format in all cases: biochemical
# Factor Xa = assay: Anti Factor Xa (anticoagulant) activity, Coatest Heparin test kit; conditions: for Anti-coagulant activity: anti-factor Xa, percentage of PIMH (defined as 100%); for Anticoagulant activity (%): Example 2, Table 2, standard heparin = 100
# Method: Anti Factor Xa activity was measured against a porcine mucosal heparin (PIMH) standard of known activity (Sigma, UK) using a diagnostic grade Coatest Heparin test kit (Chromogenix, MA, USA), adapted to a 96 well plate format, reading A405 (Polarstar plate reader (BMG LabTechnologies, UK)).
# recombinant human BACE-1 = biological target: T1, recombinant human BACE-1 (Homo sapiens, UniProt P56817); assay: BACE-1 inhibition by in vitro FRET peptide cleavage assay; conditions: for IC50 (BACE-1): FRET peptide cleavage; for Therapeutic ratio (BACE/Xa): calculated from IC50 against BACE-1/anticoagulant activity; for EC50 (BACE inhibition): Example 2, Table 2
# T1 construct: purchased Sigma
# Method: In vitro cleavage of APP by BACE-1 was measured using a FRET peptide cleavage assay.
# The ability of the compounds to inhibit BACE-1 cleavage of APP was assessed using a fluorescent resonance energy transfer (FRET) peptide cleavage assay employing the FRET peptide 5-FAM-Glu-Val-Asn-Leu-Asp-Ala-Phe-Lys(QXL520)-OH, containing the Swedish amino acid variant (Anaspec, Inc., CA, USA). When intact, the amino terminal fluorophore is quenched, but upon enzymatic cleavage the fluorophore is released from quencher and fluoresces (520 nm). Assays were performed in triplicate in 96 well black plates (20 mM sodium acetate, 0.1% Triton-X-100, pH 4.5; 2.5 μM peptide per well and 4.0×10^−3 units/well of recombinant human BACE-1 (Sigma)). The appropriate controls for enzyme activity and background fluorescence were employed and plates were incubated (1 h, 25° C., stopped with 2.5 M sodium acetate) Inhibitors were added in a concentration range from 1000-0.0001 μg/ml. Fluorescence 480ex/520em was measured on a Polarstar plate reader (BMG LabTechnologies, UK) and data were analysed by plotting log10 concentration of inhibitor against percent inhibition and fitting a four parameter sigmoidal curve using BioDataFit 1.02 (Chang Bioscience, USA).
# pepsin = biological target: T2, pepsin (Sus scrofa, UniProt P00791); assay: Pepsin FRET cleavage assay
# T2 construct: purchased Sigma, UK
# Method: (§1) The ability of compounds to inhibit the structurally related proteases pepsin and cathepsin D (Sigma, UK) was measured by FRET cleavage assay (5 pmol enzyme/well, EnzChek Protease Assay kit (Molecular Probes, UK) according to manufacturer's instructions). Activity against human recombinant renin (Cayman Chemical, MI, USA), was measured by FRET peptide cleavage assay (0.08 pMoles enzyme/well, using the Renin Substrate 1 (Molecular Probes, Invitrogen, UK) according to manufacturer's instructions. IC50 values were calculated as described above.
# human recombinant renin = biological target: T3, human recombinant renin (Homo sapiens, UniProt P00797); assay: Renin FRET peptide cleavage assay; conditions: concentrations up to 1000 μg/ml
# T3 construct: purchased Cayman Chemical
# T3 sequence (P00797 67-406): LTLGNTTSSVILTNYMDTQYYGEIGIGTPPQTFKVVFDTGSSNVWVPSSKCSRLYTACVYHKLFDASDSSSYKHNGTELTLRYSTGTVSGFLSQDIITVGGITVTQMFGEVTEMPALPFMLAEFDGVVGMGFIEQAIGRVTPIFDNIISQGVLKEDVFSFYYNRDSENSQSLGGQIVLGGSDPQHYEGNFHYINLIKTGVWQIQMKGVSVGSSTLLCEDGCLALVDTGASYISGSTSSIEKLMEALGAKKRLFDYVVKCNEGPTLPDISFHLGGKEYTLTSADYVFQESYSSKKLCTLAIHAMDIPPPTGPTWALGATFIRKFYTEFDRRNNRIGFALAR
# Method: as §1
# cathepsin D = biological target: T4, cathepsin D (Homo sapiens, UniProt P07339); assay: Cathepsin D FRET cleavage assay
# T4 construct: purchased Sigma, UK
# Method: as §1
# [1] = biological target: T5, Aβ peptide (Amyloid β Protein Fragment 1-42) (Homo sapiens, UniProt P05067); assay: Aβ aggregation assay (Thioflavin T); conditions: for rate of A-β aggregation, % slower: compared to intact heparin; for increase in the time taken to reach half-maximal peptide aggregation: concentration of 100 μg/ml, compared to parental PMH
# T5 construct: Amyloid β Protein Fragment 1-42; Sigma A9810; purchased Sigma A9810
# Method: The Aβ peptide was prepared by addition of 1 ml of hexafluoro-2-propanol to 1 mg Aβ peptide (Amyloid β Protein Fragment 1-42; Sigma A9810) and disaggregation at room temperature for 1 hour. The resulting material was divided into 50 μl (50 μg) aliquots and dried in Speed Vac for approximately 2 hours, followed by storage at −20° C. The Thioflavin T (Sigma T-3516) solution was prepared as a 5 mM solution in 50 mM Glycine-NaOH pH 8.5, and stored in the dark at 4° C. Thioflavin T assay buffer comprising 20 μl Thioflavin T solution with 50 μl 1M DTT and […] assay Buffer (10 mM HEPES/100 mM NaCl pH 7.4) was kept on ice. 50 μl of 20 mM NaOH was added to 50 μg of Aβ peptide. 2.5 ml of Thioflavin T assay buffer was then added to this Aβ peptide solution, making “Aβ buffer”. The remaining 2.5 ml of Thioflavin T assay buffer was the blank buffer, and both were kept on ice. Six replicates of sample dilutions (1:1 in assay buffer) were pipetted into a 96 well black plate (Greiner 655076; 100 μl/well) and the plate was kept on ice. 100 μl/well of Aβ buffer was added to the samples (in triplicate), and 100 μl/well of the blank buffer added to a further three sample replicates. The 96 well plate was read (450 nm excitation wavelength and 490 nm emission wavelength), taking a reading every 150 seconds for 250 cycles one plate reader set at 37° C.
# T1 sequence (P56817 46-501): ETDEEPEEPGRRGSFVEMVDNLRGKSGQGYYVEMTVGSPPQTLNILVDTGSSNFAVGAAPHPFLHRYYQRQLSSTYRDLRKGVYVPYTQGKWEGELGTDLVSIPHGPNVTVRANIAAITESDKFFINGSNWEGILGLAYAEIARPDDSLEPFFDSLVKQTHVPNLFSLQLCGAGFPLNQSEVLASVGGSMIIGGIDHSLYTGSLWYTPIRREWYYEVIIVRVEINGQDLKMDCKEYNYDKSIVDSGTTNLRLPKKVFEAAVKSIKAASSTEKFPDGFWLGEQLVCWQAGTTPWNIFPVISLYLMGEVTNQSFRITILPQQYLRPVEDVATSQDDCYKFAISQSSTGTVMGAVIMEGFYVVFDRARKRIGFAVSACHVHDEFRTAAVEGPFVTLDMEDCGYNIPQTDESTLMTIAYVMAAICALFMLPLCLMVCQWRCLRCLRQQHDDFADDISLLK
# T2 sequence (P00791 60-385): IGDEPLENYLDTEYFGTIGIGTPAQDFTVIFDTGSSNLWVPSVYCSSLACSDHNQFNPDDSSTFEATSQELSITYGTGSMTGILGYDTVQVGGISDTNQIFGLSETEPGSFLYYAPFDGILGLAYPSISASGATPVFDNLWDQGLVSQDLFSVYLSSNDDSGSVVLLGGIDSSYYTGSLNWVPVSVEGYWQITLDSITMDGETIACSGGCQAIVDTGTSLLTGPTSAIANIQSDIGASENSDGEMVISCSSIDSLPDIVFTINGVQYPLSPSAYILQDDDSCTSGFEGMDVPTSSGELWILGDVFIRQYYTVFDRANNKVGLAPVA
# T4 sequence (P07339 65-412, species assumed): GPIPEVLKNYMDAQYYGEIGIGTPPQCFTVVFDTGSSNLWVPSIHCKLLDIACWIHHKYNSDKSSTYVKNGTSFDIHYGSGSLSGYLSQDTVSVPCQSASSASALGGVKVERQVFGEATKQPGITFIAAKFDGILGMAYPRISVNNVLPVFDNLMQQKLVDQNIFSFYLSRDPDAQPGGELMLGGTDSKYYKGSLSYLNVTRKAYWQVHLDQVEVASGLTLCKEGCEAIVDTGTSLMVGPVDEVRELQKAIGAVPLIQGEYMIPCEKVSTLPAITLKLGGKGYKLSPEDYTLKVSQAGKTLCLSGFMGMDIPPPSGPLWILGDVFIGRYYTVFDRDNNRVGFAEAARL
# T5 sequence (P05067 672-713): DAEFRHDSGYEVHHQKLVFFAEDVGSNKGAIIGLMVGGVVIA
compound,measurement,setting,value
Per-sulphated heparin [Compound 9],Anti-coagulant activity,Factor Xa,35.0%
same,IC50 (BACE-1),recombinant human BACE-1; Table 1,0.053 μg/ml
same,Therapeutic ratio (BACE/Xa),recombinant human BACE-1,2
6-O-desulphated heparin [Compound 5],Anti-coagulant activity,Factor Xa,0.5%
same,IC50 (BACE-1),recombinant human BACE-1; Table 1,0.100 μg/ml
same,Therapeutic ratio (BACE/Xa),recombinant human BACE-1,61
"6-O-desulphated, 2-O-desulphated, N-acetylated heparin [Compound 8]",Anti-coagulant activity,Factor Xa,0.03%
same,IC50 (BACE-1),recombinant human BACE-1; Table 1,>100 μg/ml
same,BACE-1 inhibitory activity in words,recombinant human BACE-1; Table 1,almost abolished
same,Therapeutic ratio (BACE/Xa),recombinant human BACE-1,1
N-acetyl heparin [Compound 2],IC50 against pepsin,pepsin,3.27 µg/mL
same,fold less potent than PIMH against pepsin,pepsin; compared with compound 1,14 fold
same,Anti-coagulant activity,Factor Xa,0.03%
same,inhibitory effect on renin,human recombinant renin,None of the compounds exerted an inhibitory effect on renin
same,IC50 against cathepsin D,cathepsin D,0.27 µg/mL
same,"rate of A-β aggregation, % slower",[1]; FIG. 2,50%
same,increase in the time taken to reach half-maximal peptide aggregation,[1],50%
same,IC50 (BACE-1),recombinant human BACE-1; Table 1,0.031 μg/ml
same,Therapeutic ratio (BACE/Xa),recombinant human BACE-1,3136
"porcine intestinal mucosal heparin [Compound 1, reference compound]",IC50 against pepsin,pepsin,0.23 µg/mL
same,Anticoagulant activity (%),Factor Xa,100%
same,Anti-coagulant activity,Factor Xa,100%
same,inhibitory effect on renin,human recombinant renin,None of the compounds exerted an inhibitory effect on renin
same,IC50 against cathepsin D,cathepsin D,0.1 µg/mL
same,enhancement of Aβ aggregation,[1]; FIG. 2,maximum enhancement
same,EC50 (BACE inhibition),recombinant human BACE-1,0.027 µg/mL
same,IC50 (BACE-1),recombinant human BACE-1; Table 1,0.028 μg/ml
same,Therapeutic ratio (BACE/Xa),recombinant human BACE-1,1
"NCCCS(=O)(=O)O [Compound 10, 3-amino-1-propanesulfonic acid, reference compound]",IC50 (BACE-1),recombinant human BACE-1; Table 1,No
same,inhibition of BACE-1,recombinant human BACE-1; even at high concentrations (1000 μg/ml),did not inhibit BACE-1
Ido 2-de-O-sulphated heparin [Compound 3],Anti-coagulant activity,Factor Xa,0.4%
same,inhibitory effect on renin,human recombinant renin,None of the compounds exerted an inhibitory effect on renin
same,IC50 against cathepsin D,cathepsin D,0.77 µg/mL
same,increase in the time taken to reach half-maximal peptide aggregation,[1],50%
same,IC50 (BACE-1),recombinant human BACE-1; Table 1,0.053 μg/ml
same,Therapeutic ratio (BACE/Xa),recombinant human BACE-1,147
"Ido 2-de-O-sulphated, N-acetylated heparin [Compound 4]",IC50 against pepsin,pepsin,> 1000 µg/mL
same,"anti factor Xa activity, fold lower than PIMH",Factor Xa; Example 1,at least 3000 fold
same,Anticoagulant activity (%),Factor Xa,<0.03%
same,Anti-coagulant activity,Factor Xa,0.03%
same,inhibitory effect on renin,human recombinant renin,None of the compounds exerted an inhibitory effect on renin
same,"rate of A-β aggregation, % slower",[1]; FIG. 2,100%
same,increase in the time taken to reach half-maximal peptide aggregation,[1],100%
same,EC50 fold lower than unmodified PMH,recombinant human BACE-1; Example 2,approximately 3 fold
same,EC50 (BACE inhibition),recombinant human BACE-1,0.089 µg/mL
same,IC50 (BACE-1),recombinant human BACE-1; Table 1,0.091 μg/ml
same,Therapeutic ratio (BACE/Xa),recombinant human BACE-1,1092
"6-O-desulphated, N-acetylated heparin [Compound 6]",Anti-coagulant activity,Factor Xa,0.03%
same,IC50 (BACE-1),recombinant human BACE-1; Table 1,0.410 μg/ml
same,Therapeutic ratio (BACE/Xa),recombinant human BACE-1,237
"6-O-desulphated, 2-O-desulphated heparin [Compound 7]",Anti-coagulant activity,Factor Xa,0.03%
same,IC50 (BACE-1),recombinant human BACE-1; Table 1,0.786 μg/ml
same,Therapeutic ratio (BACE/Xa),recombinant human BACE-1,123
